# Data published in PubChem BioAssay AID330 (DTP/NCI, 2004).
# Several values for one entry are separate records, joined by “and”; a condition that tells them apart may be missing. Equal entries are not always repeated. Inconclusive results and toxic doses are left out.
# Test system: P388 leukemia ip, CD2F1 mice, survival T/C
# Assay: NCI In Vivo Anticancer Drug Screen. Data for tumor model P388 Leukemia (intraperitoneal) in CD2F1 (CDF1) mice
# Conditions: endpoint: median survival time, higher = longer survival
# Procedure, shortened: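 Mice carrying the transplanted tumor received test compound or vehicle. Survival was recorded in each group, and the value is the treated-group measurement divided by that of the vehicle-treated control group.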
# [1] = dose: 6.25 mg/kg/injection, schedule: Q01DX009 (ip), vehicle: saline
# [2] = dose: 12.5 mg/kg/injection, schedule: Q01DX009 (ip), vehicle: saline
# [3] = dose: 25.0 mg/kg/injection, schedule: Q01DX009 (ip), vehicle: saline
# [4] = dose: 50.0 mg/kg/injection, schedule: Q01DX009 (ip), vehicle: saline
# [5] = dose: 60.0 mg/kg/injection, schedule: Q01DX005 (ip), vehicle: saline with Tween-80
# [6] = dose: 120.0 mg/kg/injection, schedule: Q01DX005 (ip), vehicle: saline with Tween-80
compound,measurement,setting,value
CCOC(=O)C(Cc1ccc([N+](=O)[O-])cc1)N1C(=O)c2ccccc2C1=O (stereo not given),T/C,"dose: 50.0 mg/kg/injection, schedule: Q01DX009 (ip), vehicle: distilled water + Tween-80 + alcohol",98 % of control
same,T/C,"dose: 100.0 mg/kg/injection, schedule: Q01DX009 (ip), vehicle: distilled water + Tween-80 + alcohol",89 % of control
same,T/C,"dose: 200.0 mg/kg/injection, schedule: Q01DX009 (ip), vehicle: distilled water + Tween-80 + alcohol",92 % of control
COC1CC(O)(CCNc2ccc([N+](=O)[O-])cc2[N+](=O)[O-])C(O)C(CO)O1 (stereo not given),T/C,"dose: 20.0 mg/kg/injection, schedule: Q01DX001 (ip), vehicle: Klucel (hydroxypropylcellulose) (HPC)",100 % of control
same,T/C,"dose: 40.0 mg/kg/injection, schedule: Q01DX001 (ip), vehicle: Klucel (hydroxypropylcellulose) (HPC)",93 % of control
same,T/C,"dose: 80.0 mg/kg/injection, schedule: Q01DX001 (ip), vehicle: Klucel (hydroxypropylcellulose) (HPC)",94 % of control
CCN(CC)CCNc1ccc(C)c2sc3cccc(O)c3c(=O)c12,T/C,"dose: 100.0 mg/kg/injection, schedule: Q01DX009 (ip), vehicle: Klucel (hydroxypropylcellulose) (HPC)",181 % of control
C[C@H](CSC(=O)c1ccccc1)C(=O)N1c2ccccc2C[C@H]1C(=O)O,T/C,"dose: 60.0 mg/kg/injection, schedule: Q01DX005 (ip), vehicle: saline + Tween-80 + alcohol",102 % of control
same,T/C,"dose: 120.0 mg/kg/injection, schedule: Q01DX005 (ip), vehicle: saline + Tween-80 + alcohol",102 % of control
same,T/C,"dose: 240.0 mg/kg/injection, schedule: Q01DX005 (ip), vehicle: saline + Tween-80 + alcohol",104 % of control
C=C(Cl)C(=NC(C)(C)C)N(CC)CC,T/C,"dose: 12.5 mg/kg/injection, schedule: Q01DX005 (ip), vehicle: Klucel (hydroxypropylcellulose) (HPC)",104 % of control
same,T/C,"dose: 25.0 mg/kg/injection, schedule: Q01DX005 (ip), vehicle: Klucel (hydroxypropylcellulose) (HPC)",104 % of control
same,T/C,"dose: 50.0 mg/kg/injection, schedule: Q01DX005 (ip), vehicle: Klucel (hydroxypropylcellulose) (HPC)",107 % of control and 110 % of control
[CH3][Sn]1([CH3])[O]P(=O)(c2ccccc2)[O]1,T/C,"dose: 6.25 mg/kg/injection, schedule: Q01DX009 (ip), vehicle: saline with Tween-80",99 % of control
same,T/C,[1],110 % of control
same,T/C,"dose: 12.5 mg/kg/injection, schedule: Q01DX009 (ip), vehicle: saline with Tween-80",96 % of control
same,T/C,[2],112 % of control
same,T/C,"dose: 25.0 mg/kg/injection, schedule: Q01DX009 (ip), vehicle: saline with Tween-80",107 % of control
same,T/C,[3],119 % of control
same,T/C,"dose: 50.0 mg/kg/injection, schedule: Q01DX009 (ip), vehicle: saline with Tween-80",105 % of control
same,T/C,[4],112 % of control and 120 % of control
CC(NC(=O)C(=O)c1c[nH]c2ccccc12)C(=O)O (stereo not given),T/C,[5],98 % of control
same,T/C,[6],96 % of control
same,T/C,"dose: 240.0 mg/kg/injection, schedule: Q01DX005 (ip), vehicle: saline with Tween-80",103 % of control
C[n+]1c2ccccc2c(N=[N+]=[N-])c2ccccc21,T/C,[1],100 % of control
same,T/C,[2],98 % of control
same,T/C,[3],105 % of control
same,T/C,[4],109 % of control
O=C1CSC(c2c(F)cccc2F)N1c1nncs1 (stereo not given),T/C,"dose: 50.0 mg/kg/injection, schedule: Q01DX005 (ip), vehicle: saline with Tween-80",98 % of control
same,T/C,"dose: 100.0 mg/kg/injection, schedule: Q01DX005 (ip), vehicle: saline with Tween-80",100 % of control
same,T/C,"dose: 200.0 mg/kg/injection, schedule: Q01DX005 (ip), vehicle: saline with Tween-80",98 % of control
O=Cc1c(-c2ccc(Cl)cc2)nc2n1CCS2,T/C,"dose: 100.0 mg/kg/injection, schedule: Q04DX002 (ip), vehicle: Klucel (hydroxypropylcellulose) (HPC)",101 % of control
same,T/C,"dose: 400.0 mg/kg/injection, schedule: Q04DX002 (ip), vehicle: Klucel (hydroxypropylcellulose) (HPC)",104 % of control
C[n+]1ccc(Nc2ccc(O)cc2)c2ccc(Cl)cc21,T/C,"dose: 12.5 mg/kg/injection, schedule: Q04DX003 (ip), vehicle: Klucel (hydroxypropylcellulose) (HPC)",100 % of control
same,T/C,"dose: 25.0 mg/kg/injection, schedule: Q04DX003 (ip), vehicle: Klucel (hydroxypropylcellulose) (HPC)",116 % of control and 92 % of control
same,T/C,"dose: 50.0 mg/kg/injection, schedule: Q01DX005 (ip), vehicle: saline + Tween-80 + alcohol",112 % of control
same,T/C,"dose: 50.0 mg/kg/injection, schedule: Q04DX003 (ip), vehicle: Klucel (hydroxypropylcellulose) (HPC)",101 % of control and 95 % of control
same,T/C,"dose: 100.0 mg/kg/injection, schedule: Q01DX005 (ip), vehicle: saline + Tween-80 + alcohol",110 % of control
same,T/C,"dose: 100.0 mg/kg/injection, schedule: Q04DX003 (ip), vehicle: Klucel (hydroxypropylcellulose) (HPC)",109 % of control and 112 % of control
same,T/C,"dose: 200.0 mg/kg/injection, schedule: Q01DX005 (ip), vehicle: saline + Tween-80 + alcohol",114 % of control
same,T/C,"dose: 200.0 mg/kg/injection, schedule: Q04DX003 (ip), vehicle: Klucel (hydroxypropylcellulose) (HPC)",120 % of control and 94 % of control
Cc1nc(O)c([N+](=O)[O-])c(=O)[nH]1,T/C,"dose: 25.0 mg/kg/injection, schedule: Q01DX009 (ip), vehicle: other",99 % of control
same,T/C,"dose: 50.0 mg/kg/injection, schedule: Q01DX009 (ip), vehicle: other",98 % of control
same,T/C,"dose: 100.0 mg/kg/injection, schedule: Q01DX009 (ip), vehicle: other",110 % of control
same,T/C,"dose: 200.0 mg/kg/injection, schedule: Q01DX009 (ip), vehicle: other",102 % of control
Nc1nc(-c2ccccn2)cc2ccccc12,T/C,[5],105 % of control
same,T/C,[6],100 % of control
[O-]c1nn(-c2ccccc2)n[n+]1-c1ccccc1,T/C,"dose: 100.0 mg/kg/injection, schedule: Q01DX001 (ip), vehicle: Klucel (hydroxypropylcellulose) (HPC)",97 % of control
same,T/C,"dose: 200.0 mg/kg/injection, schedule: Q01DX001 (ip), vehicle: Klucel (hydroxypropylcellulose) (HPC)",100 % of control
same,T/C,"dose: 400.0 mg/kg/injection, schedule: Q01DX001 (ip), vehicle: Klucel (hydroxypropylcellulose) (HPC)",94 % of control
